Measured values as given in US20050187188A1, “Methods for the treatment of a traumatic central nervous system injury” (Emory University, priority 2000, published 2005).
Entries after “also recorded” stand apart in the source; their conditions may differ.

Assays:
cell death = details: by attenuating release of inflammatory cytokines; cited from earlier work
[1] = system: rats with bilateral contusions of the medial prefrontal cortex; test: Lesion size, ventricle and striatal area measurements after medial prefrontal cortex contusion, Example 6; format: in vivo, rat; details: 4 mg/kg in peanut oil
Procedure: (§1) Male Sprague-Dawley rats (300 g) were housed individually in wire cages and kept on a reverse light-dark cycle (0800-2000 h). Animals were assigned to one of four groups: (1) lesion (n=7); (2) lesion +3 days progesterone (LP3; n=7); (3) lesion +5 days progesterone (LP5; n=7); and (4) Sham (n=8). All procedures involving animals conformed to guidelines set forth in the Guide for the Care and Use of Laboratory Animals (U.S. Department of Health and Human Services, Pub no. 85-23, 1985) and were approved by the Emory University Institutional Animal Care and Use Committee.
Bilateral contusions of the medial prefrontal cortex were created by a pneumatic impactor device as previously described. Briefly, rats were given anesthetized with ketamine/xylazine (90 mg/kg; 10 mg/kg) and placed in a stereotaxic apparatus. A craniectomy (diameter 6 mm) was made over the midline of the prefrontal cortex with its center 1.5 mm AP to bregma. After removal of the bone, the tip of the impactor (diameter 5 mm) was moved to +3.0 mm AP; 1.0 mm ML (from bregma), and checked for adequate clearance. Trauma was produced by pneumatically activating the piston to impact −2.0 mm DV (from dura) at a velocity of 3 m/s with a brain contact time of 0.5 seconds.
Progesterone was dissolved in peanut oil (Sigma; 4 mg/kg) and injections were given at 1 and 6 hours post-injury and then once per day for either 3 or 5 consecutive days. Control animals received injections of vehicle at similar time-points. Animals were coded with regard to surgery and treatment to prevent experimenter bias during behavioral testing and histological examination. […]
Mean area measurements of lesion size were quantified from sections at 15 rostral-caudal levels spaced 300 μm apart. […] Perimeters of the striatum and the lateral ventricles were also traced and mean areas were quantified from 7 rostral-caudal levels (300 μm apart).
(§2) Experienced individuals who were blind to treatment conditions of the study conducted all histological and behavioral analyses. All data were tested for normality and homoschedasticity before being analyzed by parametric analysis of variance (ANOVA). MWM results were analyzed using separate mixed-factorial (4 groups×5 days) analysis of variance (ANOVA) on each of the two 5-day testing periods (acquisition and retention respectively). Results of the BSN task were analyzed using the mixed-factorial ANOVA (4 groups×2 post-injury trials). […] Pearson r coefficients were calculated to determine whether significant correlations could be detected between histological (e.g., lesion size and cellular density) and behavioral parameters (e.g., acquisition and retention of the MWM task and measures of sensory neglect).

[2] = system: rats with bilateral contusions of the medial prefrontal cortex; test: Cell counts of Nissl-stained neurons (STR, GP, DMN, VMN), Example 6; format: in vivo, rat; details: 4 mg/kg in peanut oil
Procedure: as §1
Bilateral contusions of the medial prefrontal cortex were created by a pneumatic impactor device as previously described. Briefly, rats were given anesthetized with ketamine/xylazine (90 mg/kg; 10 mg/kg) and placed in a stereotaxic apparatus. A craniectomy (diameter 6 mm) was made over the midline of the prefrontal cortex with its center 1.5 mm AP to bregma. […]
Cell counts were done on an Olympus BH-2 microscope equipped with an eyepiece micrometer grid (sample area=40 μm^2 at ×400 magnification). […] Only cells with neuronal nuclei and intact membranes were counted as neurons.
as §2

traumatic brain injury = test: Morris water maze dose response, progesterone in cyclodextrin vehicle, Example 7; format: in vivo, rat
Procedure: The Morris Water Maize (MWM) consisted of a circular tank with a diameter of 133 cm filled with opaque water (20±1° C.; non-toxic Artista™ nontoxic white tempura paint) to a depth of 64 cm (23 cm from top of tank). A platform (11 cm×11 cm) was submerged to a depth of 2 cm and placed approximately 28 cm from the wall of the pool in the center of the northeast quadrant. The position of the platform will remain constant throughout the experiment. MWM testing began seven days after surgery. Each animal was tested for a total of 10 days (2 trials per day) in two 5-day blocks. At the start of each trial, the experimenter placed a rat into the pool at one of four starting positions, and at the same time, activate the computer-interfaced camera tracking system. Each rat was allowed to swim in the pool until it reached the platform or until 90 seconds has passed. […] Once a rat found the platform, it was left there for 20 seconds and then removed from the pool for an intertrial interval of 20 seconds. Each rat was then placed in the pool at another start position and the procedure described earlier was repeated. The performance of each rat was measured in terms of latency to platform, length of path to platform, and swim strategy, i.e., percent of total time spent in the outer versus inner annuli.
Surgery to induce a traumatic brain injury was performed as outlined in Example 1. Behavior testing using the Morris Water Maize was performed as outlined in Example 1 and the methods for the tactical adhesive removal were performed as outlined in Example 4.

## CC(=O)[C@H]1CC[C@H]2[C@@H]3CCC4=CC(=O)CC[C@]4(C)[C@H]3CC[C@]12C [progesterone]
Cell death
  cell death in vitro: prevent cell death in vitro
[1]; 3 or 5 days
  enlargement of the lateral ventricles: did not have any effect on this measure
  mean striatal area: No between-group differences
[1]; 3 days (LP3)
  necrotic cavity formation: tended to be smaller than in the brains of injured animals
[1]; 5 days (LP5), P<0.05
  necrotic cavity formation: significant reductions in overall necrotic cavity formation
[2]; 3 days (LP3)
  injury-induced neuronal loss (STR, GP, DMN, VMN): significant reduction of injury-induced neuronal loss in all brain regions examined
[2]; 5 days (LP5)
  injury-induced neuronal loss (STR, GP, DMN, VMN): significant reduction of injury-induced neuronal loss in all brain regions examined
  neuronal loss in the VMN: more effective than 3 days at attenuating neuronal loss in the VMN; also recorded: significant reductions in cell loss of the VMN
Traumatic brain injury; high dose 32 mg/kg in a cyclodextrin-containing vehicle
  Morris water maze performance: did not show any beneficial effect
Traumatic brain injury; low dose 8 mg/kg in a cyclodextrin-containing vehicle
  Morris water maze performance: consistent improvement in Morris water maze performance
Traumatic brain injury; moderate dose 16 mg/kg in a cyclodextrin-containing vehicle
  Morris water maze performance: consistent improvement in Morris water maze performance
